Measured values from US5120738A, “Pantothenic acid derivatives” (Fujirebio Inc., priority 1990, dated 1992).

Target: T1, acyl CoA-cholesterol-acyltransferase (ACAT) (Rattus norvegicus, UniProt Q7TQM4)
T1 construct: a microsome fraction prepared from a rat liver; from tissue; host or cells: rat liver microsome fraction
T1 sequence (Q7TQM4 1-524): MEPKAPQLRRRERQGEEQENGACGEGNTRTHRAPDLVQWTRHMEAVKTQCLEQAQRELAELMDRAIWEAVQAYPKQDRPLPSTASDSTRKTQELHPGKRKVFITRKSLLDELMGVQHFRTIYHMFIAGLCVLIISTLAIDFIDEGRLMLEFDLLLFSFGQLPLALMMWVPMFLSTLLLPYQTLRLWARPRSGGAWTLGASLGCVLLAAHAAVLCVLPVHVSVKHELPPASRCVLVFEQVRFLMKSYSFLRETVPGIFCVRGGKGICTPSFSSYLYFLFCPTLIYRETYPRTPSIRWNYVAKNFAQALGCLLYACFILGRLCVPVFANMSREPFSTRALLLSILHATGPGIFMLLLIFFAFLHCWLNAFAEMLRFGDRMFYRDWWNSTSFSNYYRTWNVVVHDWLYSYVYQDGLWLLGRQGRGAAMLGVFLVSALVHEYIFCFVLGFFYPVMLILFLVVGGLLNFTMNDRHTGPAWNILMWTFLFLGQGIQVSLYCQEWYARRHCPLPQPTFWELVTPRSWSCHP
Assay: ACAT inhibition test (cholesteryl oleate formed from [1-14C]oleoylCoA, rat liver microsome fraction)
Format: biochemical
Conditions: for inhibition at 1 µM: 10^-6 M test drug, 37° C., 4 minutes, relative to control without test compound; for IC50: in square brackets behind the % inhibition, range in parentheses not explained, read-out: ACAT inhibition [IC50 × 10^-7 M]
Protocol: ACAT inhibition tests were carried out by measuring cholesteryl oleate produced from [1-^14 C]oleoylCoA and endocellular cholesterol similarly to the method of Helgerud et al. [cf.
Thereafter, 4.2 ml of methanol and 8.3 ml of chloroform were added to the reaction mixture to stop the reaction. Then, 2.5 ml of water was added and after shaking the mixture sufficiently a chloroform layer was separated. After concentrating it, the chloroform layer was subjected to thin layer chromatography. The cholesteryl oleate formed was separated and its radioactivity was measured by a liquid scientilaltion counter.
On the other hand, the same tests as above were repeated without using test compounds. The radioactivity of the control thus obtained was used as a standard for calculating the ACAT inhibiting activity of each test compound.

SMILES	inhibition at 1 µM	IC50
CCCCCCCC/C=C\CCCCCCCC(=O)Nc1ccccc1OC(=O)CCNC(=O)C1OC(C)(C)OCC1(C)C (stereo not drawn) [Example 15, 2-(Oleoylamino)phenyl 3-[N-(2,2,5,5-tetramethyl-1,3-dioxane-4-carbonyl)amino]propionate]	79.6%	–
CCCCC/C=C\C/C=C\CCCCCCCC(=O)Nc1cccc(NC(=O)CCNC(=O)C2OC(C)(C)OCC2(C)C)c1 (stereo not drawn) [Example 9, [N-3-(Linoleylamino)phenyl]-3-[N-(2,2,5,5-tetramethyl-1,3-dioxane-4-carbonyl)amino]propanamide]	51.8%	–
CC/C=C\C/C=C\C/C=C\CCCCCCCC(=O)Nc1ccccc1NC(=O)CCNC(=O)C1OC(C)(C)OCC1(C)C (stereo not drawn) [Example 5]	56%	–
CCCCCCCCCCC(C)C(=O)N1CCN(C(=O)CCNC(=O)C2OC(C)(C)OCC2(C)C)CC1 (stereo not drawn) [Example 199]	53.7%	–
CCCCCCCC/C=C\CCCCCCCC(=O)N[C@H]1CCCC[C@@H]1NC(=O)CCNC(=O)C1OC(C)(C)OCC1(C)C (stereo partly drawn) [Example 70, N-[(1S,2S)-2-(Oleoylamino)cyclohexane]-3-[N-(2,2,5,5-tetramethyl-1,3-dioxane-4-carbonyl)amino]propanamide]	–	162 nM
CCCCC/C=C\C/C=C\CCCCCCCC(=O)N[C@H]1CCCC[C@@H]1OC(=O)CCNC(=O)C1OC(C)(C)OCC1(C)C (stereo partly drawn) [Example 80, (1S,2S)-2-(Linoleoylamino)cyclohexane-1-yl 3-[N-(2,2,5,5-tetramethyl-1,3-dioxane-4-carbonyl)amino]propionate]	–	108 nM
CCCCCCCC/C=C\CCCCCCCC(=O)NC1CCCN(C(=O)CCNC(=O)C(O)C(C)(C)CO)C1 (stereo not drawn) [Example 169]	58.3%	–
CCCCCCCC/C=C\CCCCCCCC(=O)NCCCOC(=O)CCNC(=O)C1OC(C)(C)OCC1(C)C (stereo not drawn) [Example 47, 3-(N-oleoylamino]propyl 3-[N-(2,2,5,5-tetramethyl-1,3-dioxane-4-carbonyl)amino]propionate]	–	250 nM
CCCCCCCC/C=C\CCCCCCCC(=O)N[C@H]1CCCC[C@@H]1OC(=O)CCNC(=O)C1OC(C)(C)OCC1(C)C (stereo partly drawn) [Example 78, (1S,2S)-2-(Oleoylamino)cyclohexane-1-yl 3-[N-(2,2,5,5-tetramethyl-1,3-dioxane-4-carbonyl)amino]propionate]	–	40.1 nM
CCCCCCCC/C=C\CCCCCCCC(=O)NCCOC(=O)CCNC(=O)C1OC(C)(C)OCC1(C)C (stereo not drawn) [Example 44, 2-(N-Oleoylamino)ethyl 3-[N-(2,2,5,5-tetramethyl-1,3-dioxane-4-carbonyl)amino]propionate]	–	686 nM
CCCCCCCC/C=C\CCCCCCCC(=O)N1CCN(C(=O)CCNC(=O)C(O)C(C)(C)CO)CC1 (stereo not drawn) [Example 193]	18.9%	–
CCCCCCCC/C=C\CCCCCCCC(=O)N1CCCN(C(=O)CCNC(=O)C(O)C(C)(C)CO)CC1 (stereo not drawn) [Example 195]	48.7%	–
CCCCCCCC/C=C\CCCCCCCC(=O)N1CCCC(NC(=O)CCNC(=O)C2OC(C)(C)OCC2(C)C)C1 (single isomer, unassigned) [Example 171]	61.1%	–
CCCCCCCC/C=C\CCCCCCCC(=O)N1CCCN(C(=O)CCNC(=O)C(OC(C)=O)C(C)(C)COC(C)=O)CC1 (stereo not drawn) [Example 194, 1-Oleoyl-4-(1-oxo-3-N-(1-oxo-2,4-diacetoxy-3,3-dimethylbutyl)aminopropyl)tetrahydro-1,4-diazepine]	62.6%	–
CCCCCCCCC=CCCCCCCCNC(=O)N1CCN(C(=O)CCNC(=O)C2OC(C)(C)OCC2(C)C)CC1 (stereo not drawn) [Example 198]	84.3%	–
CCCCC/C=C\C/C=C\CCCCCCCC(=O)Nc1ccccc1NC(=O)CCNC(=O)C1OC(C)(C)OCC1(C)C (stereo not drawn) [Example 4, N-2-(Linoleoylamino)phenyl]-3-[[N-(2,2,5,5-tetramethyl-1,3-dioxane-4-carbonyl)amino]propanamide]	79.8%	–
CCCCCCCC/C=C\CCCCCCCC(=O)NCCNC(=O)CCNC(=O)C1OC(C)(C)OCC1(C)C (stereo not drawn) [Example 33]	–	299 nM
CCCCCCCC/C=C\CCCCCCCC(=O)NCCCCCCOC(=O)CCNC(=O)C1OC(C)(C)OCC1(C)C (stereo not drawn) [Example 67]	–	389 nM
CCCCCCCC/C=C\CCCCCCCC(=O)NC1CCCN(C(=O)CCNC(=O)C2OC(C)(C)OCC2(C)C)C1 (stereo not drawn) [Example 168]	75.7%	–
CCCCCCCC/C=C\CCCCCCCC(=O)NC[C@H]1CCCN1C(=O)CCNC(=O)C1OC(C)(C)OCC1(C)C (stereo partly drawn) [Example 167]	64%	–
CCCCCCCC/C=C\CCCCCCCC(=O)Nc1ccccc1NC(=O)CCNC(=O)C1OC(C)(C)OCC1(C)C (stereo not drawn) [Example 1, N-[2-(Oleoylamino)phenyl]-3-[N-(2,2,5,5-tetramethyl-1,3-dioxane-4-carbonyl)amino]propanamide]	–	295 nM
CCCCCCCC/C=C\CCCCCCCC(=O)Nc1ccccc1NC(=O)CCNC(=O)C(OC(C)=O)C(C)(C)COC(C)=O (stereo not drawn) [Example 2, N-[2-(Oleoylamino)phenyl]-3-[N-(2,4-diacetoxy-3,3-dimethyl-1-oxobutyl)amino]propanamide]	64.8%	274 nM
CCCCCCCC/C=C\CCCCCCCC(=O)NCCCCCOC(=O)CCNC(=O)C1OC(C)(C)OCC1(C)C (stereo not drawn) [Example 66]	–	355 nM
CCCCCCCC/C=C\CCCCCCCC(=O)N[C@H]1CCCC[C@@H]1NC(=O)CCNC(=O)[C@H](O)C(C)(C)CO [Example 74, N-[(1S,2S)-2-(Oleoylamino)cyclohexane-1-yl]-3-[N-[(2R)-2,4-dihydroxy-3,3-dimethyl-1-oxobutyl]amino]propanamide]	–	155 nM
CCCCCCCC/C=C\CCCCCCCC(=O)NCCCNC(=O)CCNC(=O)C1OC(C)(C)OCC1(C)C (stereo not drawn) [Example 34]	–	385 nM
CCCCCCCC/C=C\CCCCCCCC(=O)NCCCCNC(=O)CCNC(=O)C1OC(C)(C)OCC1(C)C (stereo not drawn) [Example 37, N-(4-Oleoylaminobutyl)-3-[N-(2,2,5,5-tetramethyl-1,3-dioxane-4-carbonyl)amino]propanamide]	–	286 nM
CCCCCCCC/C=C\CCCCCCCC(=O)N[C@@H]1CCCC[C@H]1OC(=O)CCNC(=O)C1OC(C)(C)OCC1(C)C (stereo partly drawn) [Example 77, (1R,2R)-2-(Oleoylamino)cyclohexane-1-yl 3-[N-(2,2,5,5-tetramethyl-1,3-dioxane-4-carbonyl)amino]propionate]	–	210 nM
CCCCCCCC/C=C\CCCCCCCC(=O)NC[C@@H]1CCCN1C(=O)CCNC(=O)C(O)C(C)(C)CO (stereo partly drawn) [Example 166]	65.7%	–
CCCCCCCC/C=C\CCCCCCCC(=O)N[C@H]1CCCC[C@@H]1NC(=O)CCNC(=O)[C@H](OC(C)=O)C(C)(C)COC(C)=O [Example 71]	–	198 nM
